The text below walks through data of US20090099218A1, “SYNTHESIS OF NOVEL TUBULIN POLYMERIZATION INHIBITORS: BENZOYLPHENYLUREA (BPU) SULFUR ANALOGS” (priority 2007, published 2009).

Each structure is given as a SMILES string. Where only a bound is given, the exact number is not on record here.

The subject of one experiment is ASPC1. Briefly: MTT growth inhibition, pancreatic cell line ASPC1. Format: cell-based. Conditions: MTT assay, 96 h treatment; average of three independent experiments. The protocol: (§1) Eight of these analogs 6d, 6h, 6n, 6g, 7b, 7d, 8g, and 8h were tested for their cytotoxicity in seven pancreatic cell lines ASPC1, Panc1, Panc203, Panc430, Pane 1005, MiaPaca2, and HS766T using MTT assay. Cells were trypsinized, seeded at 5×10^3 cells/well in 96-well plate and allowed to grow for 24 hours before the treatment with exponential increasing concentrations of drugs in the presence of 10% FBS. After a 96-hours period of treatment, 20 μl of MTT solution (5 mg/ml in PBS) were added to each well, and the plates were then incubated for 3 hours at 37° C. Medium was then replaced with 100 μl of DMSO per well. Plates were shaken and the optical density was measured at 570 nm using a multiwell plate reader (Bio-Rad, Model 550, Bio-Rad Inc., Hercules, Calif.). Each experiment was performed in triplicate for each drug concentration and was carried out independently at least 3 times. The IC50 value was defined as the concentration needed for a 50% reduction in the absorbance calculated based on the survival curves. Response to drug treatment was assessed by standardizing treatment groups to untreated controls. Compounds activity was compared with compound 1.
(§2) Table 2 (Growth Inhibition of Pancreatic Cancer Cell Lines by BPU and BPTU Analogues (IC50) a) compares the cytotoxicity of a series of new derivatives against a panel of seven pancreatic cancer cell lines, as determined by MTT assay. See, Mosmann, T., J. Immunol. Methods 65:55-63 (1983).
In general terms: Tetrazolium dyes change colour on reduction, which living cells bring about.

The subject of the next experiment is Panc1. Briefly: MTT growth inhibition, pancreatic cell line Panc1. Format: cell-based. As to conditions: MTT assay, 96 h treatment; average of three independent experiments. The protocol: as §1, §2
The next experiment relates to Panc203. Briefly: MTT growth inhibition, pancreatic cell line Panc203. The experiment is classed as cell-based. As to conditions: MTT assay, 96 h treatment; average of three independent experiments. The protocol: as §1, §2
The next experiment relates to Panc430. The experiment can be described thus: MTT growth inhibition, pancreatic cell line Panc430. Format: cell-based. Conditions: MTT assay, 96 h treatment; average of three independent experiments. The protocol:
as §1, §2

Another experiment concerns Panc1005. The experiment can be described thus: MTT growth inhibition, pancreatic cell line Panc1005. The experiment is classed as cell-based. Conditions: MTT assay, 96 h treatment; average of three independent experiments. The protocol:
as §1, §2

The next experiment deals with Miapaca2. Briefly: MTT growth inhibition, pancreatic cell line Miapaca2. Format: cell-based. Conditions: MTT assay, 96 h treatment; average of three independent experiments. The protocol: as §1, §2
A further experiment has as its system HS766. Briefly: MTT growth inhibition, pancreatic cell line HS766. The experiment is classed as cell-based. Conditions: MTT assay, 96 h treatment; average of three independent experiments. The protocol:
as §1, §2

A further experiment has as its system CWR22R. Briefly: MTT growth inhibition, prostate cancer cell line CWR22R. Format: cell-based, human. As to conditions: MTT assay; average of three independent experiments.
The subject of the next experiment is LnCaP. Briefly: MTT growth inhibition, prostate cancer cell line LnCaP. Format: cell-based, human. Conditions: MTT assay; average of three independent experiments. The protocol:
(§3) This MTT assay was carried using human prostate cancer cell lines CWR22R, LAPC-4 and LnCap using Promega cell titer 96 nonradioactive cell proliferation kits. Cells were trypsinized and centrifuged at 1000 rpm for 5 minutes and the supernatant was aspirated. Cells were resuspended with HBSS to a concentration of 10^6/ml. Cell suspension was diluted in serum containing medium to plate 2000 cells/well/0.2 ml. Cell suspension was transferred to sterile solution basin. Cells were plated using multichannel pipette set at 200 μl and incubated overnight for attachment. One plate was prepared for day 0 MTT assay as follows: 100 μl of media was removed from each well using multichannel pipette and 15 μl of MTT reagent was added. Plates were incubated at 37° C. for 4 hrs. […] of STOP solution was added to each well and incubated at room temperature for 1 hour. Absorbance was measured at 570 and 650 nm on plate reader. All the media from the remaining plates were carefully removed and the cells were treated with the media containing drug. MTT assays were done on days 0, 3, 5 and 7. In the preliminary screening […] BPU sulfur analogs 6l, 6h, 6n, 7d and 8h were screened and their activity was compared with compound 1.
(§4) Compounds with significant inhibitory activity in pancreatic cancer cells were further evaluated against prostate cancer cell lines in the MTT assay, (Mosmann, T., J. Immunol. Methods 65:55-63 (1983)) and the results were compared to those for compound 1 (Table 3).

The next experiment has as its system LAPC-4. Briefly: MTT growth inhibition, prostate cancer cell line LAPC-4. As to conditions: MTT assay; average of three independent experiments. The experiment is classed as cell-based, human. The protocol:
as §3, §4

Experiment [1] relates to tubulin. The experiment can be described thus: Inhibition of tubulin polymerization. Format: biochemical. Conditions: Tubulin was at 10 μM; read-out: tubulin IC50 ± SD (inhibition of tubulin polymerization). The protocol: Briefly, tubulin polymerization was followed turbidimetrically at 350 nm in Beckman model DU7400 and DU7500 recording spectrophotometers equipped with electronic temperature controllers. […] Samples were pre-incubated for 15 min at 30° C. and chilled on ice. GTP (final concentration, 0.4 mmol/L) was added to each reaction mixture, and these were placed in cuvettes held at 0° C. Baselines were established, the temperature was raised to 30° C.

For experiment [2], the system named is tubulin. Briefly: Inhibition of [3H]colchicine binding. As to conditions: Tubulin 1 μM; [3H]colchicine and inhibitor at 5 μM.

As to `O=C(NC(=O)c1ccccc1[N+](=O)[O-])Nc1ccc(Oc2nccc(Br)n2)cc1` [Compound 6m], the IC50 (commonly the point on the concentration scale where inhibition reaches its midpoint) in the experiment with ASPC1 is 770 nM; with Panc1, 680 nM; in the experiment on Panc203, over 10000 nM; with Panc430 it was 10000 nM; in the experiment with Panc1005 it was over 10000 nM; with Miapaca2, 740 nM. The IC50 in the experiment on HS766 stood at 470 nM; in the experiment on CWR22R, 5000 nM; in the experiment with LnCaP, 1000 nM; in the experiment on LAPC-4 it was 200 nM; in the experiment with tubulin [1], 4700 nM. Also, the “colchicine binding (% ± SD), inhibition of [3H]colchicine binding” value in the experiment with tubulin [2] is 21 ± 5%.
For `COc1cc([C@@H]2c3cc4c(cc3[C@H](O)[C@H]3COC(=O)[C@H]23)OCO4)cc(OC)c1OC` [podophyllotoxin, reference compound], the “colchicine binding (% ± SD), inhibition of [3H]colchicine binding” value in the experiment on tubulin [2] came to 77 ± 8%.
